Laboratory results as given in ChEMBL document CHEMBL4020733, “Approaches towards the development of chimeric DPP4/ACE inhibitors for treating metabolic syndrome” (Bioorg Med Chem Lett, 2017).

Assays:
Aminopeptidase N = Aminopeptidase N (Homo sapiens, UniProt P15144); test: Inhibition of APN (unknown origin)
Neprilysin = Neprilysin (Homo sapiens, UniProt P08473); test: Inhibition of NEP (unknown origin)
[1] = biological target: Angiotensin-converting enzyme (Homo sapiens, UniProt P12821); test: Inhibition of human plasma ACE
Sequence of Angiotensin-converting enzyme (P12821 whole entry): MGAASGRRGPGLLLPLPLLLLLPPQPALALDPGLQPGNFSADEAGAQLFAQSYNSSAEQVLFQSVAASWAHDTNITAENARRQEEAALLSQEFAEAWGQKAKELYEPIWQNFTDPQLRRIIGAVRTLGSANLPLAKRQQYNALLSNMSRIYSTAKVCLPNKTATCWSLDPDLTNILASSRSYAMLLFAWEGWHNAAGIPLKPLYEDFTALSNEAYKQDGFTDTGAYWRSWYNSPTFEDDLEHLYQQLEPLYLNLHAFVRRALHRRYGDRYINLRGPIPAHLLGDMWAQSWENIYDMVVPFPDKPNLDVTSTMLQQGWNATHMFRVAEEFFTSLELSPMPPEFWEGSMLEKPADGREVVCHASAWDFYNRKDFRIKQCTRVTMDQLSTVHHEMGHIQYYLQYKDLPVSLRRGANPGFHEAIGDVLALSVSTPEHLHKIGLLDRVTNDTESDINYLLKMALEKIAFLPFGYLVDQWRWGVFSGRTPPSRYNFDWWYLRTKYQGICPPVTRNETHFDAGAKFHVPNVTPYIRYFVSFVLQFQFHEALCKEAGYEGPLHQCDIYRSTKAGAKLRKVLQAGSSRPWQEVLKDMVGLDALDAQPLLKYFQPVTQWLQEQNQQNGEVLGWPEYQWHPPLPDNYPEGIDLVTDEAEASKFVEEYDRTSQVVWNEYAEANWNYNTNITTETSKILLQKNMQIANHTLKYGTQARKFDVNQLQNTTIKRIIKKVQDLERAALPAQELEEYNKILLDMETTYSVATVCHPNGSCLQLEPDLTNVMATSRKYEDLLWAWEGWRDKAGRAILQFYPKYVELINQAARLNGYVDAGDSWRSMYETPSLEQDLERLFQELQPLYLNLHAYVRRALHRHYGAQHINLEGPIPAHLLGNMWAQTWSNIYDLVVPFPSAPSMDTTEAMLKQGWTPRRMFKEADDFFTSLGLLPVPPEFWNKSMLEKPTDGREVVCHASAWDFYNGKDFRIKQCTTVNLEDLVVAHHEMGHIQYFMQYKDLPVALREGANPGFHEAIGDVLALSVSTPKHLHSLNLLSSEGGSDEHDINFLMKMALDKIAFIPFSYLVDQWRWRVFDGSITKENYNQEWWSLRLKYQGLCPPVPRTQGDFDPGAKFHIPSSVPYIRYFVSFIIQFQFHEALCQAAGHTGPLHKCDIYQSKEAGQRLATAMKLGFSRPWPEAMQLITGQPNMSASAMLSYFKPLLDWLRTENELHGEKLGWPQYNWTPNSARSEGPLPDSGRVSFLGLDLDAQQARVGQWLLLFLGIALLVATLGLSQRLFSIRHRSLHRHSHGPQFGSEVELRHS

[2] = Inhibition of APP (unknown origin); design: species or system Homo sapiens
[3] = Plasma protein binding in mouse; type: ADME, cell-free; settings: read-out: PPB (converted)
[4] = Plasma protein binding in rat; type: ADME, cell-free; settings: read-out: PPB (converted)
[5] = Plasma protein binding in human; type: ADME, cell-free; settings: read-out: PPB (converted)
Dipeptidyl peptidase 4 = Dipeptidyl peptidase 4 (Homo sapiens, UniProt P27487); test: Inhibition of human plasma DPP4
Sequence of Dipeptidyl peptidase 4 (P27487 whole entry): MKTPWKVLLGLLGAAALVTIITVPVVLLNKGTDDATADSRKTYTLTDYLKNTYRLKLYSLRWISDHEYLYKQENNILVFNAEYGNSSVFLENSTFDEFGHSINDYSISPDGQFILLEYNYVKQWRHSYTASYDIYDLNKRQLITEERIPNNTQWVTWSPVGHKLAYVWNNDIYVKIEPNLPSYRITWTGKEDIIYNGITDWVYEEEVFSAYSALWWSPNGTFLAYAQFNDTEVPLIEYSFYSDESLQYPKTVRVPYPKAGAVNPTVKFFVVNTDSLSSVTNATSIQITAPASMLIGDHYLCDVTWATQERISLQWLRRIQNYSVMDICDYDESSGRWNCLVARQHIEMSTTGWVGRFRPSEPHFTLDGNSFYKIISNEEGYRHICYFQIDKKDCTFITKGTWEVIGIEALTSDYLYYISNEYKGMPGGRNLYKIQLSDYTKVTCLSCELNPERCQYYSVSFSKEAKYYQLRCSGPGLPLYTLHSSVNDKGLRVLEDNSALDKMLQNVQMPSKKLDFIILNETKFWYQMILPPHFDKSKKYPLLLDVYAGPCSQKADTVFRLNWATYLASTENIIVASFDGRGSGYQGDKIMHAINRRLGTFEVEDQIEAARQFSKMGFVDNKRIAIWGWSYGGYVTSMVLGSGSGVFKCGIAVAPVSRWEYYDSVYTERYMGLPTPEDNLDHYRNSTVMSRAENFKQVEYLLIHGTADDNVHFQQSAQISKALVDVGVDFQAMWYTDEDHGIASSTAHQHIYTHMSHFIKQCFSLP

Sequence of Neprilysin (P08473 whole entry): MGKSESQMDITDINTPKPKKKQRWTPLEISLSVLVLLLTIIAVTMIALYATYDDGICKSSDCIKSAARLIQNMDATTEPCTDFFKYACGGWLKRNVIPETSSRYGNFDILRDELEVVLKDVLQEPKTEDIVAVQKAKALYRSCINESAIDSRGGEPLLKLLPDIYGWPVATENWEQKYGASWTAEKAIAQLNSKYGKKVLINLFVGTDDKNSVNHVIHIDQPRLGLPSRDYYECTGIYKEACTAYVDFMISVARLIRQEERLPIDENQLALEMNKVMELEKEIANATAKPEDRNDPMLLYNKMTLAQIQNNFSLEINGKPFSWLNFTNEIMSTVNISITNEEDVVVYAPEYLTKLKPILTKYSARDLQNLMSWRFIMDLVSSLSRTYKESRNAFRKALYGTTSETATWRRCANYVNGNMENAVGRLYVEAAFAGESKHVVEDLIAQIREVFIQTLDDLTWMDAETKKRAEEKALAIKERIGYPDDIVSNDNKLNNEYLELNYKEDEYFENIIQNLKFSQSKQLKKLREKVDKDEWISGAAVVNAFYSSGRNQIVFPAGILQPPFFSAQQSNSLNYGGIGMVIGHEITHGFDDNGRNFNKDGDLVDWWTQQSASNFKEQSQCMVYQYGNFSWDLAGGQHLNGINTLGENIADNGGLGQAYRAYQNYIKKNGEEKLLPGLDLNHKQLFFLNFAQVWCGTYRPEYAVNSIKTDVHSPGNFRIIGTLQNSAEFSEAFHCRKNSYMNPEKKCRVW
Sequence of Aminopeptidase N (P15144 whole entry): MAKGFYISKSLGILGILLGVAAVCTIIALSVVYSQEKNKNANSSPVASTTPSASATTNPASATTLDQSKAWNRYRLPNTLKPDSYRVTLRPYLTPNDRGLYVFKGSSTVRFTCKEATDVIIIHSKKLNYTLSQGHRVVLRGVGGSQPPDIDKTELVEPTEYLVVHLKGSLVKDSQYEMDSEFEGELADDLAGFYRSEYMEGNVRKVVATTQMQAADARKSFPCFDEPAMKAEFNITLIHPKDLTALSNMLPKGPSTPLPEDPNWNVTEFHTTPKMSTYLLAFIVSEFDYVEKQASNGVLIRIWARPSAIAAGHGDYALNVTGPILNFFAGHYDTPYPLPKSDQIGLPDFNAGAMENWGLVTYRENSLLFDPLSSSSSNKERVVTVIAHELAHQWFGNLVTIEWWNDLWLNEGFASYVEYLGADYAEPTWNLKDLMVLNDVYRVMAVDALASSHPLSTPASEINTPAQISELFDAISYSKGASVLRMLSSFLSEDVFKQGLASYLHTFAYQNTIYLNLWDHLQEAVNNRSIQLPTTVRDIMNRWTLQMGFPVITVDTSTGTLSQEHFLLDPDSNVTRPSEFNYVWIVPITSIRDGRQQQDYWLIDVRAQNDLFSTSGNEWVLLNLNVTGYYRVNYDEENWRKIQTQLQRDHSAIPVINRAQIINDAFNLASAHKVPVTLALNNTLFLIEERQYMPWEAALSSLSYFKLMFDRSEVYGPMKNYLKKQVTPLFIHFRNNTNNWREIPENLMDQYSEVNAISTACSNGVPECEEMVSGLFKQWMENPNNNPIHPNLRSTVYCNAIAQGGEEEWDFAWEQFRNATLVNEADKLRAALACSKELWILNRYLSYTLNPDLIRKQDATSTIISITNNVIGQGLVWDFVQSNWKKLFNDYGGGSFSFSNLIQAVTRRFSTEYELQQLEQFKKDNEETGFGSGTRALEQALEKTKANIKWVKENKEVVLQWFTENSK

| IC50 (Aminopeptidase N) [µM] | IC50 (Neprilysin) [µM] | IC50 [1] [µM] | IC50 [2] [µM] | SMILES | fraction unbound [3] | fraction unbound [4] | fraction unbound [5] | IC50 (Dipeptidyl peptidase 4) [µM] |
| --- | --- | --- | --- | --- | --- | --- | --- | --- |
| > 100 | > 100 | 11 | > 100 | N[C@@H](CC(=O)N1CCn2c(nnc2C(F)(F)F)C1)Cc1cc(F)c(F)cc1F [SITAGLIPTIN] | 0.707 | 0.587 | 0.53 | – |
| – | – | – | – | C[C@H](N[C@@H](CCc1ccccc1)C(=O)O)C(=O)N1CCC[C@H]1C(=O)O [ENALAPRILAT ANHYDROUS] | 0.424 | 0.456 | 0.341 | > 100 |
